We go through 61 molecules from PubChem BioAssay AID1645868 (Buhrlage Lab, Dana-Farber Cancer Institute and Novartis …, 2021).

This experiment addresses OTU domain-containing protein 3 (Homo sapiens) (UniProt Q5T2D3). As to the kind of experiment: Validation of screening hits, potency titration, in vitro enzymatic, OTU domain-containing protein 3 DUB inhibitors (AID 1645868). As to conditions: purified OTUD3, ubiquitin-rhodamine cleavage fluorescence, 2 h.

The source made the active and inactive calls.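 The calls were made as follows: active = maximal percent inhibition of the deubiquitinase OTUD3 of at least 30% across the tested doses; inactive = the rest.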

OTU domain-containing protein 3 (Homo sapiens), sequence (Q5T2D3 whole entry, looked up, the tested form may be a part): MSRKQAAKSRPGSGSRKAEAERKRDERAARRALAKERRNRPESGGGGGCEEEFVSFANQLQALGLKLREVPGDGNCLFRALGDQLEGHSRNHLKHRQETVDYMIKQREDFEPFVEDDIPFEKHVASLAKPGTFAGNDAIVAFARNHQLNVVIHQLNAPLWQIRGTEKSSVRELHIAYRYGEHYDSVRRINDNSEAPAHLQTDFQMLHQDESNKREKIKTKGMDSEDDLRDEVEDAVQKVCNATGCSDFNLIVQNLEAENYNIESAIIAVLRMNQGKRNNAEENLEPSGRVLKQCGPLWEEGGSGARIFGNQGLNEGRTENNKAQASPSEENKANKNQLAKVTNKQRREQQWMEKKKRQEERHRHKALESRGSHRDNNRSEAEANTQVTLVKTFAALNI

For `CCN(CC)c1nc(F)c2c(c1F)S(=O)(=O)CCN2Cc1cccnc1`, the IC50 was > 50 µM (inactive).

Regarding `Cc1sc2ccn(C)c(=O)c2c1C(=O)NC1CCCC1`, the IC50 was 30.8 µM.

In the case of `COC(=O)C1C(c2ccc(OC)cc2)C2(C(=O)c3ccccc3C2=O)C2C=Cc3ccccc3N12` (stereo unspecified), the IC50 is > 50 µM (inactive).

With `O=C(Nc1nc2c(ccc3ccccc32)s1)c1cccc(Br)c1`, the IC50 is 24.6 µM.

On to `O=C(OCCCN1C(=O)c2cccc3c(N4CCCCC4)ccc(c23)C1=O)c1ccccn1`, for which the IC50 is > 50 µM (inactive).

Turning to `COc1ccc(/C=C/C(=O)Nc2ccc3c(c2)OCCO3)cc1Br`, the IC50 is > 50 µM (inactive).

For the molecule `COc1cc(C(=O)NC(Cc2ccccc2)c2nc3ccccc3[nH]2)cc(OC)c1OC` (stereo unspecified), the 50% inhibitory concentration (IC50) was 2.99 µM.

Regarding `COc1ccc(C(=O)Nc2sc3c(c2C(=O)NCc2cccnc2)CCCC3)cc1`, the IC50 is > 50 µM (inactive).

`N#Cc1ccccc1Cn1c(=O)n(CCCCC(=O)NCc2ccco2)c(=O)c2ccccc21`: the half-maximal inhibitory concentration (IC50) is 43.5 µM.

For `CN(C)S(=O)(=O)c1ccc(C(=O)Nc2c(C#N)oc3ccccc23)cc1`, the IC50 is > 50 µM (inactive).

On to `COc1ccc(OC)c(NC(=O)CNC(=O)c2cc3c(OC)cccc3[nH]2)c1`, for which the IC50 is > 50 µM (inactive).

As for `CC(C)N1CC[C@@H]2[C@H](C1)CN2C(=O)Nc1cccc(F)c1`, the IC50 was > 50 µM (inactive).

For `COc1ccc(CNC(=O)Nc2cccc3ccccc23)cc1`, the half-maximal inhibitory concentration (IC50) is 13.8 µM.

On to `Cc1c(S(=O)(=O)NC2CCCCNC2=O)sc2ccc(Cl)cc12` (stereo unspecified), for which the IC50 is > 50 µM (inactive).

With `O=C(Nc1ccccc1Cl)N(Cc1cc2cc3c(cc2[nH]c1=O)OCCO3)C1CCCCC1`, the IC50 was 40.6 µM.

Regarding `O=C(c1ccco1)N1CCCC2(C1)Nc1cccnc1NC2=NC1CCCC1` (stereo unspecified), the IC50 is > 50 µM (inactive).

Turning to `O=c1c(-c2nc(C3CC3)no2)cccn1Cc1c(F)cccc1Cl`, the IC50 was > 50 µM (inactive).

As for `COc1ccc(O)c(C(=O)OCc2cc(=O)oc3ccc4ccccc4c23)c1`, the IC50 was > 50 µM (inactive).

With `CCc1ccc2[nH]c(=O)c(CN(CCc3ccc(OC)c(OC)c3)C(=O)Nc3ccccc3)cc2c1`, the IC50 was > 50 µM (inactive).

Turning to `CC(=O)N1CCc2cc(S(=O)(=O)NCc3ccc(C)cc3)ccc21`, the IC50 was > 50 µM (inactive).

On to `COc1cccc(NC(=O)CSc2nnc(-c3cc4cccc(OC)c4o3)n2C)c1`, for which the IC50 was 35.9 µM.

Regarding `COc1ccc(-c2cc3c(=O)n(CC(=O)NCCCN4CCCC4)ncn3n2)cc1`, the IC50 was > 50 µM (inactive).

`O=C(Cn1c(=O)n(Cc2ccc(F)cc2)c(=O)c2ncccc21)Nc1ccccc1`: the IC50 is > 50 µM (inactive).

Consider `COc1cc(OC)cc(-n2c(=O)c3sccc3n(CC(=O)Nc3ccc(C)cc3)c2=O)c1`, for which the half-maximal inhibitory concentration (IC50) was 21.1 µM.

On to `COc1cc(Cn2cnc3c([nH]c4ccc(Br)cc43)c2=O)cc(OC)c1`, for which the half-inhibitory concentration (IC50) was 12.7 µM.

As for `Clc1ccc(C[n+]2cc(-c3ccc(Cl)cc3)n3c2CCC3)cc1`, the IC50 is > 50 µM (inactive).

Take `Cc1cc(C)c(NC(=O)CSc2nc3nccnc3c(=O)n2Cc2ccccc2Cl)c(C)c1`: the IC50 was > 50 µM (inactive).

On to `Cc1ccc(NCc2cc3c(C(C)(C)C)nn(-c4ccc(Cl)cc4)c3[nH]c2=O)cc1`, for which the half-maximal inhibitory concentration (IC50) was 33.5 µM.

Regarding `O=S(=O)(c1cccc(F)c1)N1CCc2nc3ccccc3n2CC1`, the half-maximal inhibitory concentration (IC50) was 17.1 µM.

For the molecule `Cc1cccc(NC(=O)Nc2nnc(CC(=O)NCc3ccccc3)s2)c1`, the IC50 was 23.9 µM.

Consider `CN(c1ccccc1)c1nc(=O)n(CC(=O)Nc2ccc3c(c2)OCCO3)c2ccccc12`, for which the IC50 was > 50 µM (inactive).

For `Cc1ccc(C(=O)NCc2ccc(C(=O)Nc3ccc(C)c(C)c3)o2)cc1`, the IC50 was > 50 µM (inactive).

Turning to `COc1ccc(S(=O)(=O)N2CCN3Cc4ccccc4N(C)CC3C2)cc1` (stereo unspecified), the IC50 was > 50 µM (inactive).

With `COc1ccc(C(C)NC(=O)c2cnc(-c3ccccc3)nc2-c2ccncc2)cc1` (stereo unspecified), the IC50 is > 50 µM (inactive).

Consider `COc1ccccc1-c1ccc(CN2[C@@H](c3ccccc3)C[C@@H]3NC(=O)CCC[C@H]32)cc1`, for which the IC50 is > 50 µM (inactive).

For the molecule `CC1(C)CC(=O)C2=C(C1)Nc1ccccc1N(C(=O)C(F)(F)F)C2c1cccs1` (stereo unspecified), the IC50 is > 50 µM (inactive).

Take `Cc1ccccc1N1C(=O)/C(=C\c2cccn2C)c2ccccc2C1=O`: the IC50 is > 50 µM (inactive).

For `Cc1ccc(C(=O)NCC(=O)Nc2nc3ccccc3[nH]2)c(C)c1`, the concentration for half-maximal inhibition (IC50) is 35.3 µM.

For `O=C(Cn1c(=O)n(Cc2ccc3c(c2)OCO3)c(=O)c2ncccc21)c1ccc(Cl)cc1`, the half-maximal inhibitory concentration (IC50) is 33.9 µM.

Take `CC1CCN(c2cc(-n3cnc(C(=O)N4CCCC(C)C4)c3)ncn2)CC1` (stereo unspecified): the IC50 is > 50 µM (inactive).

As for `CS(=O)(=O)N1CCc2cc(C(=O)Nc3ccc(Cc4ccncc4)cc3)ccc21`, the IC50 is > 50 µM (inactive).

In the case of `Fc1cccc(Cn2cc(-c3noc(-c4cccnc4)n3)nn2)c1`, the IC50 was > 50 µM (inactive).

For the molecule `N#Cc1cc2c(nc1SCC(=O)NCc1ccccc1)CCCC2`, the IC50 is > 50 µM (inactive).

As for `CCc1nc(-c2cccc(NC(=O)c3ccc(C#N)cc3F)c2)no1`, the IC50 is > 50 µM (inactive).

On to `Cc1ccc(C)c(NS(=O)(=O)c2cc(-c3cnc(C4CC4)o3)ccc2C)c1`, for which the IC50 was > 50 µM (inactive).

Consider `CC(=O)c1ccc(NC(=O)/C(=C/c2ccco2)n2nnnc2-c2ccccc2)cc1`, for which the IC50 was > 50 µM (inactive).

Take `CCn1ccc2c(cc(C(=O)Nc3cc(F)ccc3F)n2C)c1=O`: the IC50 is > 50 µM (inactive).

For `CNC(=O)c1cc2c(=O)n3cccc(C)c3nc2n1Cc1ccccc1`, the IC50 is > 50 µM (inactive).

As to `CCCCNC(=O)C1Sc2nnc(-c3ccccc3)n2NC1c1ccccc1` (stereo unspecified), the IC50 is 17.9 µM.

For the molecule `COc1ccc(NC(=O)c2ccc(Nc3nnc(C)c4ccccc34)cc2)cc1`, the IC50 was > 50 µM (inactive).

For `CC(C)=CCC/C(C)=C/Cc1c(O)cc2c(c1O)C(=O)OC2`, the IC50 was 3.25 µM.

On to `CCCC(=O)Nc1ccc(SCc2nnc(-c3ccccc3)o2)cc1`, for which the IC50 is > 50 µM (inactive).

Consider `CNC(=O)c1cc2nc(N(C)C)n(-c3ccc(F)cc3)c2s1`, for which the IC50 is > 50 µM (inactive).

For `O=C(NCc1ccc2c(c1)OCO2)c1[nH]nc2c1COc1ccccc1-2`, the IC50 is 24.8 µM.

Consider `Cc1cc(NCC2CC2)n2nc(Nc3cc(Cl)ccc3C)nc2n1`, for which the IC50 was > 50 µM (inactive).

Turning to `Cc1ccc(NC(=O)c2sc(=S)n(CCc3ccccc3)c2N)cc1`, the IC50 is 18 µM.

On to `CCCCc1ccc(-c2cc(C(=O)NCCN3CCOCC3)c3cc(Br)ccc3n2)cc1`, for which the IC50 is 23.4 µM.

For the molecule `Cc1ccc2nc(CNC(=O)c3ccccc3-c3nc(-c4ccc(F)cc4)no3)[nH]c2c1`, the IC50 is 39.9 µM.

In the case of `CC[C@H](C)C[C@H]1CC[C@](O)([C@](C)(O)C(=O)N[C@@H]2C(=O)N3NCCC[C@@H]3C(=O)N(O)[C@@H](C)C(=O)NCC(=O)N3NCCC[C@H]3C(=O)N(O)[C@H](C)C(=O)O[C@H]2C(C)C)O[C@@H]1C`, the IC50 is 2.18 µM.

Consider `c1ccc(CCN2CCc3nc4cccnc4cc3C2)nc1`, for which the IC50 was > 50 µM (inactive).

In the case of `Cc1cccc(Cl)c1NC(=O)Nc1ccc(NC(=O)c2ccccc2O)cc1`, the IC50 was 47.8 µM.
